Holding throughout (format): biochemical
For one test, the target named is T1, TYK2 (Homo sapiens, UniProt P29597).
T1 construct: made in house; host or cells: SF9 insect cells (baculovirus)
T1 sequence (P29597 873-1187): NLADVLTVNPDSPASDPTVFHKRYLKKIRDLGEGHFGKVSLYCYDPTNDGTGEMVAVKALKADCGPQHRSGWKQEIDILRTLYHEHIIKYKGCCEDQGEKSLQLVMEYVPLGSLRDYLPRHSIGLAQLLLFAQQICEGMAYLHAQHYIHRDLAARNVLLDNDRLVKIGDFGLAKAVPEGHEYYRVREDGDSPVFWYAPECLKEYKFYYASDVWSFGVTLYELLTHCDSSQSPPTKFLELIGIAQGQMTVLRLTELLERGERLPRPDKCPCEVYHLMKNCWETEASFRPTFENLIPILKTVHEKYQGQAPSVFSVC
Put plainly: TYK2 inhibition (Table 4).

The next test has as its target T2, JAK1 (Homo sapiens, UniProt P23458).
T2 construct: made in house; host or cells: SF9 insect cells (baculovirus)
Put plainly: JAK1 inhibition (Table 4). The conditions noted are these: read-out: JAK1 Ki.

For a further test, the target named is T3, JAK2 (Homo sapiens, UniProt O60674).
T3 construct: made in house; host or cells: SF9 insect cells (baculovirus)
T3 sequence (O60674 812-1132): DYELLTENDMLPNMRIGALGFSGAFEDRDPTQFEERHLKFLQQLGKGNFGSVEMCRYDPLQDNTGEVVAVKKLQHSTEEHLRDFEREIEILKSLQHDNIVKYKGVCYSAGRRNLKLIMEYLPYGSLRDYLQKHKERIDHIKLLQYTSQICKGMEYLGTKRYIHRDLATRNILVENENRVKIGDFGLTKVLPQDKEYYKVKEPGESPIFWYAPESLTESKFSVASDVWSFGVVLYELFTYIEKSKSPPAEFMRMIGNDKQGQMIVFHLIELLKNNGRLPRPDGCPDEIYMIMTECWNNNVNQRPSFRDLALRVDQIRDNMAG
Kind of test: JAK2 inhibition (Table 4). The note with it: read-out: JAK2 Ki.

The target of a further test is T4, JAK3 (Homo sapiens, UniProt P52333).
T4 construct: made in house; host or cells: SF9 insect cells (baculovirus)
T4 sequence (P52333 783-1124): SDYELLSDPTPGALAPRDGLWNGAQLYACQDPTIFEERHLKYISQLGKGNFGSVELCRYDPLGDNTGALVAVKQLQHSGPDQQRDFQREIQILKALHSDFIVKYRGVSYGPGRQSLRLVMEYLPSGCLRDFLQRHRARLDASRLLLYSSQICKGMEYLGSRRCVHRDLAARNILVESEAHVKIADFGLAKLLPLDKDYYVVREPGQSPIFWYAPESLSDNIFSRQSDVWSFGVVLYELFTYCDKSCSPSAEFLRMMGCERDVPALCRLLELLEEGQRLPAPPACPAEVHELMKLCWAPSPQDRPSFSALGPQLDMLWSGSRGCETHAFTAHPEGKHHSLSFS
Put plainly: JAK3 inhibition (Table 4). The conditions noted are these: read-out: JAK3 Ki.

24 molecules from US8461328B2, “Tricyclic heterocyclic compounds, compositions and methods of use thereof” (Genentech, Inc., priority 2010, dated 2013) can be followed below.

T2 sequence (P23458 852-1154): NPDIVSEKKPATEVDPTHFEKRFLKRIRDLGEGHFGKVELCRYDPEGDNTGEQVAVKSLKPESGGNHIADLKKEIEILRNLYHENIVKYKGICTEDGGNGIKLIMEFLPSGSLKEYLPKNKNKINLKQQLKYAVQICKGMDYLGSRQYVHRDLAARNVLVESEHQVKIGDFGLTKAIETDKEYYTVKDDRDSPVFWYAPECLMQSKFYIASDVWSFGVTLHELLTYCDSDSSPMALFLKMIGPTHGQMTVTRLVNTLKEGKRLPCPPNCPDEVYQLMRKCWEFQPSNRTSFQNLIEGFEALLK

Consider `N#CCCN1CCC(n2c(CNC(=O)c3cccnc3)nc3cnc4[nH]ccc4c32)CC1` [Example 494, N-{1-[1-(2-Cyano-ethyl)-piperidin-4-yl]-1,6-dihydro-1,3,5,6-tetraaza-as-indacen-2-ylmethyl}-nicotinamide], for which the Ki (in general, a dissociation constant, usually derived from enzyme kinetics or from competition with a known ligand) at TYK2 was determined as 61.2 nM; on JAK1, 4.73 nM; on JAK2, 23.5 nM; at JAK3 it was 18.6 nM.
As to `CC(C)S(=O)(=O)NCc1nc2cnc3[nH]ccc3c2n1C1CCN(CCC#N)CC1` [Example 495, Propane-2-sulfonic acid {1-[1-(2-cyano-ethyl)-piperidin-4-yl]-1,6-dihydro-1,3,5,6-tetraaza-as-indacen-2-ylmethyl}-amide], the Ki on TYK2 was 415 nM; at JAK1, 16.2 nM; at JAK2 it was 106 nM; on JAK3, 97.7 nM.
In the same order, the values of `N#CCCN1CCC(n2c(CNC(=O)c3ccccn3)nc3cnc4[nH]ccc4c32)CC1` [Example 496, Pyridine-2-carboxylic acid {1-[1-(2-cyano-ethyl)-piperidin-4-yl]-1,6-dihydro-1,3,5,6-tetraaza-as-indacen-2-ylmethyl}-amide] are 55.7 nM, 2.75 nM, 8.05 nM and 13.1 nM.
Consider `N#CCCN1CCC(n2c(CNS(=O)(=O)C3CC3)nc3cnc4[nH]ccc4c32)CC1` [Example 497, Cyclopropanesulfonic acid {1-[1-(2-cyano-ethyl)-piperidin-4-yl]-1,6-dihydro-1,3,5,6-tetraaza-as-indacen-2-ylmethyl}-amide], for which the inhibition constant Ki on TYK2 worked out at 169 nM; at JAK1, 13 nM; at JAK2 it was 41.5 nM; at JAK3 it was 76.3 nM.
In the same order, the values of `CC(C)C(=O)NCc1nc2cnc3[nH]ccc3c2n1C1CCN(CCC#N)CC1` [Example 498, N-{1-[1-(2-Cyano-ethyl)-piperidin-4-yl]-1,6-dihydro-1,3,5,6-tetraaza-as-indacen-2-ylmethyl}-isobutyramide] are 307 nM, 21.9 nM, 67.7 nM and 60 nM.
On to `N#CCCN1CCC(n2c(CNS(=O)(=O)C3CCCC3)nc3cnc4[nH]ccc4c32)CC1` [Example 499, Cyclopentanesulfonic acid {1-[1-(2-cyano-ethyl)-piperidin-4-yl]-1,6-dihydro-1,3,5,6-tetraaza-as-indacen-2-ylmethyl}-amide], for which the Ki was 417 nM at TYK2, 13.8 nM at JAK1, 85.6 nM on JAK2 and 103 nM at JAK3.
In the case of `N#CCCN1CCC(n2c(CNC(=O)C3CC3)nc3cnc4[nH]ccc4c32)CC1` [Example 500, Cyclopropanecarboxylic acid {1-[1-(2-cyano-ethyl)-piperidin-4-yl]-1,6-dihydro-1,3,5,6-tetraaza-as-indacen-2-ylmethyl}-amide], the Ki on TYK2 turned out to be 394 nM; on JAK1, 28.7 nM; at JAK2 it was 58.7 nM; at JAK3, 41 nM.
As for `N#CCCN1CCC(n2c(CNC(=O)c3ccccc3F)nc3cnc4[nH]ccc4c32)CC1` [Example 501, N-{1-[1-(2-Cyano-ethyl)-piperidin-4-yl]-1,6-dihydro-1,3,5,6-tetraaza-as-indacen-2-ylmethyl}-2-fluoro-benzamide], the inhibitory constant (Ki) is 56.4 nM on TYK2, 3.93 nM at JAK1, 12 nM at JAK2 and 12.2 nM at JAK3.
In the same order, the values of `COCC(=O)NCc1nc2cnc3[nH]ccc3c2n1C1CCN(CCC#N)CC1` [Example 503, N-{1-[1-(2-Cyano-ethyl)-piperidin-4-yl]-1,6-dihydro-1,3,5,6-tetraaza-as-indacen-2-ylmethyl}-2-methoxy-acetamide] are 50.5 nM, 2.54 nM, 10.4 nM and 19.6 nM.
In the same order, the values of `CCS(=O)(=O)NCc1nc2cnc3[nH]ccc3c2n1C1CCN(CCC#N)CC1` [Example 504] are 116 nM, 7.75 nM, 25.4 nM and 53.6 nM.
In the same order, the values of `N#CCCN1CCC(n2c(CNC(=O)c3cccc(F)c3)nc3cnc4[nH]ccc4c32)CC1` [Example 505, N-{1-[1-(2-Cyano-ethyl)-piperidin-4-yl]-1,6-dihydro-1,3,5,6-tetraaza-as-indacen-2-ylmethyl}-3-fluoro-benzamide] are 98.8 nM, 5.18 nM, 22.4 nM and 20.4 nM.
Turning to `CC(C)CS(=O)(=O)NCc1nc2cnc3[nH]ccc3c2n1C1CCN(CCC#N)CC1` [Example 506, 2-Methyl-propane-1-sulfonic acid {1-[1-(2-cyano-ethyl)-piperidin-4-yl]-1,6-dihydro-1,3,5,6-tetraaza-as-indacen-2-ylmethyl}-amide], the inhibition constant (Ki) at TYK2 was 179 nM; at JAK1 it was 5.75 nM; at JAK2, 53.7 nM; on JAK3 it was 74 nM.
Consider `OCc1nc2cnc3[nH]ccc3c2n1C1CCN(CCF)CC1` [Example 508, {1-[1-(2-Fluoro-ethyl)-piperidin-4-yl]-1,6-dihydro-1,3,5,6-tetraaza-as-indacen-2-yl}-methanol], for which the inhibition constant Ki is 10.2 nM on TYK2, 2.14 nM at JAK1, 10.3 nM on JAK2 and 23.2 nM on JAK3.
On to `O=S(=O)(CCC(F)(F)F)NCCc1nc2cnc3[nH]ccc3c2n1C1CCCCC1` [Example 509, 3,3,3-Trifluoro-propane-1-sulfonic acid [2-(1-cyclohexyl-1,6-dihydro-1,3,5,6-tetraaza-as-indacen-2-yl)-ethyl]-amide], for which the inhibitory constant (Ki) was 21.6 nM on TYK2, 2.55 nM on JAK1, 23.6 nM on JAK2 and 65.5 nM on JAK3.
For the molecule `CN(C)CC(=O)NCCc1nc2cnc3[nH]ccc3c2n1C1CCCCC1` [Example 510, N-[2-(1-Cyclohexyl-1,6-dihydro-1,3,5,6-tetraaza-as-indacen-2-yl)-ethyl]-2-dimethylamino-acetamide], the Ki amounted to 20.8 nM at TYK2, 3.91 nM at JAK1, 51.1 nM at JAK2 and 132 nM on JAK3.
In the same order, the values of `CN1CCN(S(=O)(=O)NCCc2nc3cnc4[nH]ccc4c3n2C2CCCCC2)CC1` [Example 511, 4-Methyl-piperazine-1-sulfonic acid [2-(1-cyclohexyl-1,6-dihydro-1,3,5,6-tetraaza-as-indacen-2-yl)-ethyl]-amide] are 30.3 nM, 5.3 nM, 48.9 nM and 174 nM.
The corresponding values for `Cc1nc2cnc3[nH]ccc3c2n1C1CCN(CCF)CC1` [Example 513, 1-[1-(2-Fluoro-ethyl)-piperidin-4-yl]-2-methyl-1,6-dihydro-1,3,5,6-tetraaza-as-indacene] are 6.95 nM, 0.84 nM, 2.16 nM and 7.63 nM.
`CCN1CC[C@@H](n2c(C)nc3cnc4[nH]ccc4c32)[C@@H](F)C1` [Example 521, 1-((3S,4R)-1-Ethyl-3-fluoro-piperidin-4-yl)-2-methyl-1,6-dihydro-1,3,5,6-tetraaza-as-indacene]: the Ki at TYK2 worked out at 48.8 nM; at JAK1, 3.48 nM; at JAK2, 7.04 nM; at JAK3, 25.4 nM.
Regarding `CCN1CC[C@@H](n2nnc3cnc4[nH]ccc4c32)[C@@H](F)C1` [Example 522, 1-((3S,4R)-1-Ethyl-3-fluoro-piperidin-4-yl)-1,6-dihydro-1,2,3,5,6-pentaaza-as-indacene], the inhibition constant Ki on TYK2 turned out to be 356 nM; on JAK1 it was 38.5 nM; at JAK2, 56.9 nM; at JAK3 it was 180 nM.
Consider `CCN1CC[C@@H](n2cnc3cnc4[nH]ccc4c32)[C@@H](F)C1` [Example 523, 1-((3S,4R)-1-Ethyl-3-fluoro-piperidin-4-yl)-1,6-dihydro-1,3,5,6-tetraaza-as-indacene], for which the Ki worked out at 85.6 nM at TYK2, 11.2 nM on JAK1, 16.7 nM on JAK2 and 302 nM at JAK3.
In the same order, the values of `N#CCCN1CCC(n2c(CF)nc3cnc4[nH]ccc4c32)CC1` [Example 530, 3-[4-(2-Fluoromethyl-6H-1,3,5,6-tetraaza-as-indacen-1-yl)-piperidin-1-yl]-propionitrile] are 5.61 nM, 0.66 nM, 1.45 nM and 3 nM.
Turning to `OCc1nc2cnc3[nH]ccc3c2n1C1CCOCC1` [Example 542, [1-(Tetrahydro-pyran-4-yl)-1,6-dihydro-1,3,5,6-tetraaza-as-indacen-2-yl]-methanol], the inhibition constant (Ki) at TYK2 worked out at 27.3 nM; on JAK1, 18.2 nM; at JAK2 it was 76.6 nM; on JAK3, 51 nM.
The corresponding values for `C[C@H](O)c1nc2cnc3[nH]ccc3c2n1C1CCOCC1` [Example 543, (S)-1-[1-(Tetrahydro-pyran-4-yl)-1,6-dihydro-1,3,5,6-tetraaza-as-indacen-2-yl]-ethanol] are 274 nM, 82.6 nM, 384 nM and 179 nM.
For the molecule `Cc1nc2cnc3[nH]ccc3c2n1C1CCN(C(C)C)CC1` [Example 547, 1-(1-Isopropyl-piperidin-4-yl)-2-methyl-1,6-dihydro-1,3,5,6-tetraaza-as-indacene], the inhibitory constant (Ki) at TYK2 turned out to be 638 nM; at JAK1 it was 27.4 nM; on JAK2, 184 nM; at JAK3 it was 1410 nM.
